The source of these data is PubChem BioAssay (NCI).

Common to all, as to test: NCI tumour cell line growth inhibition, 48 h
The subject of test [1] is IGROV1 ovarian.
Test [2] relates to MOLT-4 leukemia.
In test [3] the test system is UACC-257 melanoma.
Test [4] concerns SK-MEL-28 melanoma.
For test [5], the system named is NCI-H522 lung.
Test [6] has as its system UACC-62 melanoma.
In test [7] the test system is RXF 393 renal.
The subject of test [8] is SF-295 CNS.
Test [9] deals with SNB-75 CNS.
The test system of test [10] is COLO 205 colon.

SMILES strings stand for the structures.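 Assay format: 96-well plates, 48-hour exposure. Definition used: TGI = concentration required for complete inhibition of growth.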

Consider `CSCCC(N)C(=O)NCCNc1ccc(NCCNC(=O)C(N)CCSC)c2c1C(=O)c1ccccc1C2=O` (stereo not given), for which the TGI in test [1] is 12.2 µM; in test [2], 4.23 µM; in [3] it was 12.7 µM; in [4], 3.17 µM; in [5] it was 1.3 µM; in [6], 2.51 µM. For the same compound, the TGI in test [7] came out at 4.73 µM; in test [8], 10.7 µM; in test [9], 3.65 µM; in test [10] it was 3.13 µM.
On to `NCCCN(CCCN(C(=O)Nc1ccccc1)c1ccccc1)C(=O)Nc1ccccc1`, for which the TGI in [1] is more than 100 µM; in test [2], more than 100 µM; in [3] it was 43.1 µM; in test [4], 34.1 µM; in test [5], 43.1 µM; in test [6] it was 58 µM. The TGI in test [7] was 86.2 µM; in [8], 58.3 µM; in test [9], 77.6 µM; in [10], more than 100 µM.
Take `CSCSSC`: the TGI is more than 100 µM in test [1]; 90.3 µM in test [2]; more than 100 µM in test [3]; more than 100 µM in [4]; more than 100 µM in test [5]; more than 100 µM in test [6]. For the same compound, the TGI in [7], in test [8], in [9] and in test [10] was more than 100 µM in each case.
As for `Cc1ccc([S@](=O)c2occc2C=O)cc1`, the TGI in test [1] turned out to be 31.2 µM; in [2] it was 4.16 µM; in test [3], 26.3 µM; in test [4], 9.02 µM; in test [5] it was 31.6 µM; in test [6] it was 29.3 µM. Also, the TGI was found to be 26.3 µM in test [7], 32.4 µM in test [8], 30.9 µM in [9] and 28.9 µM in test [10].
Consider `Cc1csc(NC23CC4CC(CC(C4)C2)C3)[n+]1C(P(=O)([O-])O)P(=O)(O)O` (stereo not given), for which the TGI in test [1], in [2], in test [3], in test [4], in test [5] and in test [6] was more than 100 µM each time. Also, the TGI in test [7], in test [8], in test [9] and in test [10] was more than 100 µM in each case.
On to `Cc1cc(-c2nc3cc(F)ccc3s2)ccc1NC(=O)[C@@H](N)CCCCN`, for which the TGI amounted to 18.3 µM in test [1]; 7.24 µM in [2]; 13.3 µM in [3]; 34.6 µM in test [4]; 21 µM in test [5]; 23.4 µM in test [6]. For the same compound, the TGI in [7] stood at 24.2 µM; in test [8], 9.62 µM; in test [9] it was 4.99 µM; in test [10], 9.35 µM.
